Reference: ChEMBL document CHEMBL1147970, “Enzymatic synthesis of arbutin undecylenic acid ester and its inhibitory effect on melanin synthesis” (2007)
Calls of active or inactive are those of the source. The calls are words filed in the database; no cut-off is given here.

Test system: B16
Experiment: Antimelanogenic activity in mouse B16 cells at 0.1 mM after 6 days relative to control
Type: functional

Row | SMILES | Activity
1 | OC[C@H]1O[C@@H](Oc2ccc(O)cc2)[C@H](O)[C@@H](O)[C@@H]1O | inactive
2 | C=CCCCCCCCCC(=O)OC[C@H]1O[C@@H](Oc2ccc(O)cc2)[C@H](O)[C@@H](O)[C@@H]1O | 30%
